The values that follow come from patent EP0189142A2, “Arylalkoxyphenyl-allylic alcohols as agents for the treatment of hypersensitive ailments” (USV PHARMACEUTICAL CORPORATION, priority 1985, dated 1986).

The target in assay [1] is T1, Rat PMN 5-lipoxygenase (Rattus norvegicus, UniProt P12527).
T1 construct: endogenous in cells; host or cells: rat neutrophils (PMN)
T1 sequence (P12527 1-673): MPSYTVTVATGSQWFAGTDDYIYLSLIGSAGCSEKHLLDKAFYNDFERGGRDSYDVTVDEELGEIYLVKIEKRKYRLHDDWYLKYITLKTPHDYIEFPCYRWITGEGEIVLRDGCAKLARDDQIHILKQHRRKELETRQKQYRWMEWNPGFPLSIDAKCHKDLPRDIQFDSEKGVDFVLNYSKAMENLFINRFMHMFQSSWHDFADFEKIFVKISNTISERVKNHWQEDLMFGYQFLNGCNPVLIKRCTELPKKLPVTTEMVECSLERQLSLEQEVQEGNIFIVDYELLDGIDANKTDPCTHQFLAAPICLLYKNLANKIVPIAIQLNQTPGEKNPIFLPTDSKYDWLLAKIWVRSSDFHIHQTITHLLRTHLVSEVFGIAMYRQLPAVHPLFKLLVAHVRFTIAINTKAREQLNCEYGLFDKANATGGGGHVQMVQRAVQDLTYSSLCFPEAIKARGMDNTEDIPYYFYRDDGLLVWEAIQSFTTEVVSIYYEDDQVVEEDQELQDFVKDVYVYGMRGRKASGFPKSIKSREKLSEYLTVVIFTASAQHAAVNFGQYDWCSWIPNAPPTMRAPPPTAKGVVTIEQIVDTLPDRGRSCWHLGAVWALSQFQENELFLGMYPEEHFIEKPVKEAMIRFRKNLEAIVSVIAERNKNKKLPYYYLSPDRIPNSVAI
Description: Protocol for detecting inhibitors of the lipoxygenase pathway (5-HETE formation in rat neutrophils). It counts as cell-based. Conditions: suspension of rat neutrophils, 3 minutes at 30°C with [14C]-arachidonic acid and Calcium Ionophore A23187; net 5-HETE produced; read-out: Rat PMN 5-lipoxygenase inhibition (I50). How it is done: The following protocol describes an assay to detect inhibitors of the lipoxygenase pathway. Such inhibitors are believed to be capable of modulating the biosynthesis of the leukotrienes, a property believed to be useful in treating asthma and inflammatory disease states.
Protocol for Detecting Inhibitors of the Lipoxygenase Pathway
A suspension of rat neutrophils in buffer is incubated for 3 minutes at 30°C with [^14]-arachidonic acid (AA) and Calcium Ionophore A23'187. Citric acid (2M) is used to quench the reaction. Following the addition of a trace amount of (^3H)-5-HETE together with an excess of unlabeled 5-HETE to each tube, the mixture is extracted with chloroform/methanol. The organic layer is washed with dilute acid and an aliquot is transferred to glass tubes and dried. The residue is dissolved in a small volume of chloroform and an aliquot is spotted on silica gel TLC sheets, which are developed with an ethyl acetate/isooctane/water/acetic acid solvent system. The 5-HETE spots are visualized with iodine, cut out and placed in scintillation vials for counting. After adjusting for the extraction efficiency, the amount (pmole) of [^14C]-5-HETE in each of the tubes is quantitated by substracting the net pmoles of 5-HETE in the tubes containing buffer alone (blank) from the pmoles of 5-HETE in the tubes containing […]. The ability of the test compounds to modulate the activity of this enzyme is determined by a decrease or increase in the net amount of 5-HETE produced.

Assay [2] deals with T2, Phospholipase A2 (PLA2) (Rattus norvegicus, UniProt P14423).
T2 construct: obtained by aggregation of purified rat platelets; from tissue; host or cells: rat platelets (material obtained on aggregation)
T2 sequence (P14423 22-146): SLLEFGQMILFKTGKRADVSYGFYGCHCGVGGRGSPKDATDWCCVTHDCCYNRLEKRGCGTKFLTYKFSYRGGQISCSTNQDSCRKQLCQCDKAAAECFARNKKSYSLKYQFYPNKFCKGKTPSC
Description: In vitro assay for inhibitors of Phospholipase A2 (PLA2). It counts as biochemical. Particulars: PLA2 from aggregated purified rat platelets; 14C-phosphatidylcholine substrate; pH 7.2, 37°C, 30 minutes; read-out: (PLA2) Phospholipase A2 inhibition (I50). The text has this: (§1) Two assays have been developed to test the ability of the invented compounds on the activity of the phospholipases. In one protocol, a procedure is described for testing the inhibitory effects of these compounds on Phospholipase C (PLC), while the other protocol describes a means for testing the inhibitory effect of these compounds on Phospholipase A2 (P^LA2).
Protocol for In Vitro Assay for Inhibitors of Phospholipase A2 Assayed at oH 7.0 (PLA2)
The PLA2 employed in this screen is obtained by aggregation of purified rat platelets. In the enzyme assay phosphatidylcholine having ^14C-labeled palmitate residues at Rl and R2 is employed as substrate. PLA2 acts by cleaving the R2 fatty acid ester bond yielding free fatty acid and lysophosphatidyl choline as follows: [drawing 22]
Following completion of the reaction, the assay medium is acidified and extracted with hexane, which takes up unreacted substrate and free fatty acid product. The hexane extract is passed over a short silica gel column which retains 99% of the phosphatidyl choline. The ^14C-labeled palmitic acid is not retained (90% recovery in eluate) and is collected directly in scintillation counting vials. The released palmitic acid is conveniently quantitated by liquid scintillation spectrometry.
The compounds were tested at 100 uM in a buffer containing 0.3 mM unlabeled phosphatidylcholine (PC), 20-30,000 cpm of ^14C [PC], 100 mM NaCl, 1 mM CaCl2 and 50 mM Tris-HCL adjusted to pH 7.2 with 1 N NaOH. […] The reaction was initiated by addition of the enzyme and it was terminated 30 minutes later by the addition of 100 ml of 1 N HCL.
Following acidification, the complex was extracted with 2 ml of 2-propanol and 2 ml of hexane, vortexed, and allowed to stand until the phases separated. Free fatty acids (FFA) and some unreacted substrate were taken up in the isopropanol-saturated hexane. The hexane phase of the extraction mixture was transferred to a short silica gel column which retained unreacted PC but not the FFA. The column effluent was collected directly in scintillation vials. The columns were washed once with an additional 2 ml of hexane. The radiolabeled FFA were ^quantitated by liquid scintillation spectrometry.

Assay [3] has as its target Phospholipase C (PLC). Description: In vitro assay for inhibitors of Phospholipase C (PLC). It counts as biochemical. Particulars: PLC from aggregated purified rat platelets (CaCl2, ADP); 3H-phosphatidylinositol substrate; pH 9.0, 37°C, 10 minutes; read-out: (PLC) Phospholipase C inhibition (I50).
Description: as §1
Protocol for In Vitro Assay for Inhibitors of
The PLC employed in this screen is obtained by aggregation of purified rat platelets in the presence of CaCl2 and ADP. In the enzyme assay, phosphatidylinositol having ^3H-labeled arachidonate residues at R2 is employed as substrate. PLC acts by cleaving the phosphate ester bond yielding diglyceride as follows: [drawing 21] ^3H-Phosphatidylinosit-tol ^3H-diglyceride Inositol (cont.)
Following completion of the reaction, the assay medium is acidified and extracted with hexane which takes up unreacted substrate and diglvceride. The hexane extract is passed over a short silica gel column which retains 99% of the phosphatidylinositol. […] The diglyceride is conveniently quantitated by liquid scintillation spectrometry. […]
Following acidification, the samples were extracted with 2 ml of isopropyl alcohol and 2 ml of hexane, vortexed and allowed to stand until the phrases separate. […] The radiolabeled diglycerides were quantitated by liquid scintillation spectrometry.

Take `CC(O)C=Cc1ccc(OC(c2ccccc2)c2ccccc2)cc1` (stereo not drawn) [Compound 39]: the IC50 in assay [1] turned out to be 3.5 µM; in assay [2], 31 µM.

For `CCCCCC(O)C=Cc1ccc(OCc2ccccc2)cc1OCc1ccccc1` (stereo not drawn) [Compound 23], the IC50 in assay [1] turned out to be 10 µM. Turning to `CC(O)C=Cc1ccc(OCc2ccccc2)cc1OCc1ccccc1` (stereo not drawn) [Compound 22], the results for the IC50 in assay [1] and in assay [2] were 1 µM and 90 µM, respectively. For the molecule `CC(C)(C)C(O)C=Cc1ccc(OCc2ccccc2)c(OCc2ccccc2)c1` (stereo not drawn) [Compound 29], the IC50 in assay [1] turned out to be 2.3 µM.

For `CC(O)C=Cc1ccc(OCc2ccccc2)cc1` [Compound 21, 4-(D-BenzyloxyDhenyl)-3-buten-2-ol], the IC50 in assay [1] was determined as 1.5 µM; in assay [2] it was 120 µM. For `OCC=Cc1ccc(OCc2ccccc2)cc1OCc1ccccc1` [Compound 42], in assay [1], the IC50 was 1.4 µM. On the same count and under the same terms, then `CC(O)C=Cc1ccc(OCc2ccccc2)c(OCc2ccccc2)c1` (stereo not drawn) [Compound 28], with 2 µM; and `CC(C)(C)C(O)C=CC=Cc1ccc(OCc2ccccc2)cc1` (stereo not drawn) [Compound 34], with 4.5 µM. Take `CC(C)(C)CC(O)C=Cc1ccc(OCc2ccccc2)cc1OCc1ccccc1` (stereo not drawn) [Compound 24]: the IC50 in assay [1] was 0.3 µM; in assay [2] it was 100 µM. With `CC1CCCC(=Cc2ccc(OCc3ccccc3)cc2)C1O` (stereo not drawn) [Compound 40], the IC50 in assay [2] came to 170 µM. Turning to `CN(C)CCC(O)C=Cc1ccc(OCc2ccccc2)cc1` (stereo not drawn) [Compound 37], the IC50 in assay [3] turned out to be 24 µM. With `CCCCCC(O)C=CC=Cc1ccc(OCc2ccccc2)cc1` (stereo not drawn) [Compound 32], the IC50 in assay [1] is 7 µM. Turning to `CC(C)(C)C(O)C=Cc1ccc(OCc2ccccc2)cc1OCc1ccccc1` (stereo not drawn) [Compound 25], the figures for the IC50 in assay [1] and in assay [2] were 1.1 µM and 80 µM, respectively.
